Results from patent publication US12377068B2, “In vitro and xenograft anti-tumor activity of a halogenated-xanthene against refractory pediatric solid tumors” (Provectus Pharmatech, Inc., priority 2018, dated 2025).

How the values were obtained:
SK-N-BE(2) = assay: combination studies with PV-10, alamar Blue; format: cell-based; conditions: in combination with 50 μM PV-10, 96 hours
Method: (§1) Cells were cultured as described for cytotoxicity assays. A dilution series of three test drugs (doxorubicin, etoposide, vincristine) were prepared in DMEM containing either PBS (vehicle control) or PV10 (50 µM final) and added to cells in triplicate. Plates were cultured, washed and cell viability analyzed by alamar Blue®, as described for cytotoxicity assays. Combination indices (CI) for IC50 of test drug in combination with 50 µM PV-10 were calculated using CompuSyn software (ComboSyn Inc.). CI values were scored according to the following criteria CI<1 indicated synergistic activity, CI=1 indicated additive activity and CI>1 indicated […].

IMR5 = assay: combination studies with PV-10, alamar Blue; format: cell-based; conditions: IMR5, in combination with 50 μM PV-10, 96 hours
Method: as §1

SK-N-MC = assay: combination studies with PV-10, alamar Blue; format: cell-based; conditions: in combination with 50 μM PV-10, 96 hours
Method: as §1

SK-N-AS = assay: combination studies with PV-10, alamar Blue; format: cell-based; conditions: in combination with 50 μM PV-10, 96 hours
Method: as §1

[1] = test system: SK-N-AS, SK-N-BE (2), IMR5 and SK-N-MC cells; assay: combination studies with PV-10, summary over cell lines; format: cell-based; conditions: in combination, 96 hours
Method: as §1

[2] = rat; cited from earlier work

## COc1cc([C@@H]2c3cc4c(cc3[C@@H](O[C@@H]3O[C@@H]5CO[C@@H](C)O[C@H]5[C@H](O)[C@H]3O)[C@H]3COC(=O)[C@H]23)OCO4)cc(OC)c1O [Etoposide, etoposide]
SK-N-BE(2)
  combination index (CI) for IC50 of test drug: 0.66
IMR5
  combination index (CI) for IC50 of test drug: 0.65
SK-N-MC
  combination index (CI) for IC50 of test drug: 0.58
SK-N-AS
  combination index (CI) for IC50 of test drug: 0.17
[1]
  CI values, range over the cell lines: 0.17-0.66

## COc1cccc2c1C(=O)c1c(O)c3c(c(O)c1C2=O)C[C@@](O)(C(=O)CO)C[C@@H]3O[C@H]1C[C@H](N)[C@H](O)[C@H](C)O1 [Doxorubicin, doxorubicin]
SK-N-BE(2)
  combination index (CI) for IC50 of test drug: 0.72
IMR5
  combination index (CI) for IC50 of test drug: 0.38
SK-N-MC
  combination index (CI) for IC50 of test drug: 0.42
SK-N-AS
  combination index (CI) for IC50 of test drug: 0.77
[1]
  CI values, range over the cell lines: 0.42-0.77

## CC[C@]1(O)C[C@H]2CN(CCc3c([nH]c4ccccc34)[C@@](C(=O)OC)(c3cc4c(cc3OC)N(C=O)[C@H]3[C@@](O)(C(=O)OC)[C@H](OC(C)=O)[C@]5(CC)C=CCN6CC[C@]43[C@@H]65)C2)C1 [Vincristine, vincristine]
SK-N-BE(2)
  combination index (CI) for IC50 of test drug: 0.1
IMR5
  combination index (CI) for IC50 of test drug: 0.2
SK-N-MC
  combination index (CI) for IC50 of test drug: 0.43
SK-N-AS
  combination index (CI) for IC50 of test drug: 0.35
[1]
  CI values, range over the cell lines: 0.1-0.43

## O=C([O-])c1c(Cl)c(Cl)c(Cl)c(Cl)c1-c1c2cc(I)c(=O)c(I)c-2oc2c(I)c([O-])c(I)cc12.[Na+].[Na+] [Rose Bengal, 4,5,6,7-tetrachloro-2′,4′,5′,7′-tetraiodofluorescein disodium]
[2]
  in vivo biological lifetime: a few minutes
